According to patent US5429774A, “Benzopyran compounds” (Transitions Optical, Inc., priority 1994, dated 1995):

Test: photochromic response on an optical bench in ethyl cellulose resin (lambda max, sensitivity, saturation optical density, bleach rate)
Type: physicochemical
Conditions: for Δ OD @ SAT (saturation optical density): UV exposure 15 minutes; for Δ OD @ SAT (saturation optical density) / Sensitivity Δ OD/MIN / Bleach rate T 1/2: ethyl cellulose resin; for Lambda max Band A / Lambda max Band B: activated (colored) form, in ethyl cellulose resin; for Sensitivity Δ OD/MIN: first five (5) seconds of UV exposure, expressed on a per minute basis, 75° F. (23.9° C.); for Bleach rate T 1/2: time to one half the highest absorbance at room temperature (72° F., 22.2° C.) after removal of activating light; for sensitivity versus Comparative Examples (in words): comparison of Table 1 results
Method: The photochromic compounds prepared in the Examples and the Comparative Examples were incorporated into an ethyl cellulose resin by the following procedure. About 30 milligrams of the photochromic compound was added to 2.0 grams of a 10 weight percent ethyl cellulose solution in toluene. The photochromic compound was dissolved by warming and stirring on a steam bath. Approximately 2.0 grams of the resultant solution was deposited on the edge of a 75 by 25 millimeter (mm) glass slide. Using a draw down bar, a 0.2 mm layer of photochromic resin solution was placed evenly on the slide and permitted to dry.
The photochromic test samples prepared in Part A were tested for photochromic response rates on an optical bench. Prior to testing on the optical bench, the photochromic test samples were exposed to 365 nanometer (nm) ultraviolet light for about 15 minutes to activate the photochromic compounds and then placed into a 76° C. oven for about 15 minutes to bleach or inactivate the photochromic compounds. The test samples were then cooled to room temperature, exposed to fluorescent room lighting for at least 2 hours and then kept covered for at least 2 hours prior to testing on an optical bench maintained at 75° F. (23.9° C.).
The optical bench comprises a 150 watt Xenon arc lamp, a tungsten lamp, power supplies for both lamps, condensing lenses as needed to maintain collimated light beams from both lamps, a remote controlled shutter, a copper sulfate bath acting as a heat sink for the arc lamp, a Schott WG-320 nm cut-off filter which removes short wavelength radiation, neutral density filter(s), a sample holder in which the sample to be tested is inserted, a photopic filter, light detector, and radiometer assembly, a strip chart recorder, and a means for maintaining the alignment of the aforestated components during testing.
Change in optical density (ΔOD) of a sample was determined by inserting a photochromic test sample in the bleached state into the sample holder, adjusting the transmittance scale to 100%, opening the shutter from the Xenon lamp to provide ultraviolet radiation to change the sample from the bleached state to an activated (darkened) state, measuring the transmittance through the sample. The transmittance was measured by directing a beam of light from the tungsten lamp at a small angle normal to the surface of the sample, through the sample, and to a photopic filter, light detector and radiometer assembly. The photopic filter passes wavelengths such that the detector mimics the response of the human eye and produces output signals that are processed by the radiometer. The change in optical density was calculated according to the formula Δ OD=log(100/% Ta) where % Ta is the percent transmittance in the activated state and the logarithm is to the base 10.
The Δ OD/Min, which represents the sensitivity of the photochromic compound's response to UV light, was measured over the first five (5) seconds of UV exposure, then expressed on a per minute basis. The saturation optical density (OD) was taken under identical conditions as the Δ OD/Min, except UV exposure was continued for 15 minutes. The lambda max value, which is the maximum absorption of the activated (colored) form of the photochromic compound in ethyl cellulose resin, may occur at one or two wavelengths reported as Band A and Band B in Table 1. The Bleach Rate T 1/2 is the time interval in seconds for the absorbance of the activated form of the benzopyran in the test sample to reach one half the highest absorbance at room temperature (72° F., 22.2° C.) after removal of the source of activating light.

Row | Compound | Δ OD @ SAT (saturation optical density) | Lambda max Band A | Sensitivity Δ OD/MIN | Bleach rate T 1/2 | Lambda max Band B | sensitivity versus Comparative Examples (in words)
1 | 3-(2-fluorophenyl)-3-(benzofur-2-yl)-3H-benzo(b)thieno[3,2-f]-1-benzopyran [Example 7] | 0.27 | 482 | 0.27 OD/MIN | 10.3 min |  | 
2 | C1=CC(c2ccccc2)(c2ccccc2)Oc2ccc3ccccc3c21 [Comparative Example 1, 3,3-diphenyl-3H-naphtho [2,1-b]pyran, reference compound] | 0.31 | 432 | 0.87 OD/MIN | 0.533 min |  | 
3 | C1=CC(c2ccccc2)(c2ccccc2)Oc2ccc3oc4ccccc4c3c21 [Comparative Example 2, 3,3-diphenyl-(3H)-benzo(b)furo[3,2-f]-1-benzopyran, reference compound] | 0.18 | 430 | 0.42 OD/MIN | 1.42 min | 522 | 
4 | C1=CC(c2ccccc2)(c2cc3ccccc3o2)Oc2ccc3ccccc3c21 (stereo not drawn) [Example 1, 3-phenyl-3-(benzofur-2-yl)-3H-naphtho[2,1-b]pyran] | 0.95 | 467 | 1.15 OD/MIN | 5.75 min |  | greater than Comparative Examples 1 and 2
5 | Fc1ccccc1C1(c2cc3ccccc3o2)C=Cc2c(ccc3ccccc23)O1 (stereo not drawn) [Example 2, 3-(2-fluorophenyl)-3-(benzofur-2-yl)-3H-naphtho[2,1-b]pyran] | 0.84 | 462 | 0.59 OD/MIN | > 30 min |  | greater than Comparative Example 2
6 | C1=CC(c2ccccc2)(c2cc3ccccc3s2)Oc2ccc3ccccc3c21 (stereo not drawn) [Example 3, 3-phenyl-3-(benzothiophen-2-yl)-3H-naphtho[2,1-b]pyran] | 0.52 | 460 | 0.76 OD/MIN | 2.03 min |  | greater than Comparative Example 2

More lines, now with the values ahead:

Row | Δ OD @ SAT (saturation optical density) | Lambda max Band A | Sensitivity Δ OD/MIN | Bleach rate T 1/2 | Lambda max Band B | sensitivity versus Comparative Examples (in words) | Compound
7 | 0.34 | 453 | 0.26 OD/MIN | 5.18 min | 482 |  | C1=CC(c2ccccc2)(c2cc3ccccc3o2)Oc2ccc3oc4ccccc4c3c21 (stereo not drawn) [Example 4, 3-phenyl-3-(benzofur-2-yl)-3H-benzo(b)furo[3,2-f]-1-benzopyran]
8 | 0.34 | 440 | 0.62 OD/MIN | 1.55 min |  | greater than Comparative Example 2 | C1=CC(c2ccccc2)(c2csc3ccccc23)Oc2ccc3ccccc3c21 (stereo not drawn) [Example 5, 3-phenyl-3-(benzothiophen-3-yl)-3H-naphtho[2,1-b]pyran]
9 | 0.86 | 448 | 0.49 OD/MIN | > 20 min | 507 | greater than Comparative Example 2 | COc1ccccc1C1(c2cc3ccccc3o2)C=Cc2cc3oc4ccccc4c3cc2O1 (stereo not drawn) [Example 6, 2-(2-methoxyphenyl)-2-(benzofur-2-yl)-2H-benzo(b)furo[2,3-g]-benzopyran]
10 | 0.23 | 476 | 0.25 OD/MIN | 3.77 min | 545 |  | C1=CC(c2ccccc2)(c2cc3ccccc3s2)Oc2ccc3oc4ccccc4c3c21 (stereo not drawn) [Example 8, 3-phenyl-3-(benzothiophen-2-yl)-3H-benzo(b)furo[3,2-f]-1-benzopyran]
11 | 0.18 | 444 | 0.22 OD/MIN | 2.97 min | 515 |  | C1=CC(c2ccccc2)(c2csc3ccccc23)Oc2ccc3oc4ccccc4c3c21 (stereo not drawn) [Example 9, 3-phenyl-3-(benzothiophen-3-yl)-3H-benzo(b)furo[3,2-f]-1-benzopyran]
12 | 0.98 | 482 | 0.66 OD/MIN | > 20 min | 532 | greater than Comparative Example 2 | COc1ccccc1C1(c2cc3ccccc3o2)C=Cc2c(ccc3sc4ccccc4c23)O1 (stereo not drawn) [Example 10, 3-(2-methoxyphenyl)-3-(benzofur-2-yl)-3H-benzo(b)thieno[3,2-f]-1-benzopyran]
